{"source": "paper PMC10782225", "about": "(The FASEB Journal, 2023)", "molecular_target": "T1, unaltered α7β2‐nAChR (Homo sapiens, UniProt P17787+P36544)", "T1 construct": "expressed in transfected cells; host or cells: Xenopus laevis oocytes, cRNA injection", "T1 sequence (P36544 23-502)": "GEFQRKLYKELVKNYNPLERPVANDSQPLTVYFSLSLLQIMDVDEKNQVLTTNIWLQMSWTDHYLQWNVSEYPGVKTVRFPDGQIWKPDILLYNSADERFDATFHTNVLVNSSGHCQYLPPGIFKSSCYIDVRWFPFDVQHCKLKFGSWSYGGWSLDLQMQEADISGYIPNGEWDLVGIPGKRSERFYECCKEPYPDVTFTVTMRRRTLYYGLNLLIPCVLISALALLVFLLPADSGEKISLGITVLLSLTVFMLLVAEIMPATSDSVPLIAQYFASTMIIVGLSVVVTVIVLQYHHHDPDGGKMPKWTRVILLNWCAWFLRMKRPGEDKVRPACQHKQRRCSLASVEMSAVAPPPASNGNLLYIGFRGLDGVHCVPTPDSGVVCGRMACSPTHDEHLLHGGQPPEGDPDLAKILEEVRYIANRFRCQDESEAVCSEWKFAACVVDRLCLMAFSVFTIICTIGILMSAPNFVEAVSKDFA", "T1 sequence (P17787 26-502)": "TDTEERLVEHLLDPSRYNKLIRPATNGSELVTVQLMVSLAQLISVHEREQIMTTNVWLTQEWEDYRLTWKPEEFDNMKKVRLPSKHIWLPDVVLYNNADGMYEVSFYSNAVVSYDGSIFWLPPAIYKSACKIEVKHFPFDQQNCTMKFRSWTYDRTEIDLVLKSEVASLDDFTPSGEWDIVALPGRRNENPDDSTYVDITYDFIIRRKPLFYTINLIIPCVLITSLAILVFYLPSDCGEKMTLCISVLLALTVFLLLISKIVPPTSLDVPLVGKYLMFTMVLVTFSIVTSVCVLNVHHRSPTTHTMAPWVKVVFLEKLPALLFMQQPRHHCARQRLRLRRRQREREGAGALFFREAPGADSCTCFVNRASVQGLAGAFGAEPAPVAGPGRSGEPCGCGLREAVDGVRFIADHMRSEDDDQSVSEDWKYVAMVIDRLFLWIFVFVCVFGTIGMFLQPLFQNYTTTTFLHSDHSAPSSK", "experiment": "ACh concentration‐response curve, TEVC, unaltered α7β2‐nAChR", "type": "cell-based", "conditions": "mean ± SEM of 15–19 oocytes", "from_the_text": "Stimulations lasted 3 s, and were applied sequentially, 60 s apart."}
{"smiles": "CC(=O)OCC[N+](C)(C)C", "note": "[ACh, acetylcholine]", "values": [{"measurement": "Imax, maximum function induced by ACh, unaltered α7β2‐nAChR", "setting": "ACh 10 μM – 10 mM, half‐log steps, 3 s, 60 s apart", "value": "1353 ± 149", "unit": "nA"}, {"measurement": "hillslope (nH), unaltered α7β2‐nAChR", "setting": "logistic fit per oocyte", "value": "1.03 ± 0.07"}]}
